For the assay, the target named is cathepsin L (Homo sapiens, UniProt P07711). The note with it: 50 µM peptide, citrate buffer 0.1 M pH 5.5, 1 mM EDTA, 2 mM DTT, 37 °C, overnight reaction, product formation by HPLC.

Peptide text beside a SMILES is read from it. * marks the point of attachment. Fmoc = O=C(OCC1c2ccccc2-c2ccccc21)*; Ahx = NCCCCCC(=O)O

Sequence of cathepsin L (P07711 114-333, species assumed): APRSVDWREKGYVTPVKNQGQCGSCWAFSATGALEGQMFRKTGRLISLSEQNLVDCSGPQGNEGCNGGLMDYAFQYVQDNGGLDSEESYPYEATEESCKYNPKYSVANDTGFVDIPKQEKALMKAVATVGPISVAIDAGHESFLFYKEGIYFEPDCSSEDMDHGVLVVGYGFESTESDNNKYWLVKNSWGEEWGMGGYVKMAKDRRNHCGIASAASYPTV
Experimental: Activity assay of peptides with cathepsin L.
The reaction mixture was analysed by HPLC to
detect the formation of products from the overnight reaction.
Degradation of non-fluorescent peptides by cathepsin L
A solution of cathepsin L (20 µg/mL, 24 units/L) in citrate buffer 0.1 M pH 5.5, 1 mM EDTA, 2 mM
DTT was preactivated at 25 °C for 15 minutes. A stock solution of peptide 4, 5, 6 or 7 (125 µL, 25 nmol,
0.20 mM in DMSO) was diluted in 365 µL of the assay buffer to a final concentration of 50 µM and pre-
incubated at 37 °C. 10 µL of pre-activated cathepsin L was then added to the peptide solution and
incubated with mild shaking at 37 °C. Aliquots of 100 µL were withdrawn at 0 min, 1 hour and overnight.
Samples were flash-frozen on liquid nitrogen and were heated at 100 °C for 120 seconds prior to the

In the case of `CC(C)[C@H](NC(=O)[C@H](Cc1ccccc1)NC(=O)CCCCCNC(=O)CCCCCNC(=O)OCC1c2ccccc2-c2ccccc21)C(=O)N[C@@H](CCCNC(=N)N)C(=O)NCC(=O)N[C@@H](C)C(=O)NCC(=O)N[C@@H](CCC(=O)O)C(N)=O` [Peptide 3, Fmoc-Ahx-Ahx-FVRGAGE] ({Fmoc-Ahx-Ahx}-FVRGAGE-NH2), the “Activity assay of peptides with cathepsin L” value was “active”.

The values are drawn from publication PMC5316865, “Covalent assembly of nanoparticles as a peptidase-degradable platform for molecular MRI” (Nature Communications, 2017).
